From publication PMC8067766 (International Journal of Molecular Sciences, 2021)
Where a SMILES comes first, the peptide text is derived from it.

Assays:
[1] = Transmission electron microscopy of fibrils; type: physicochemical; settings: 1.0 mg/mL in PBS pH 7.4, TEM, uranyl acetate stain
Protocol: (§1) All peptides were dissolved in Eppendorf Low Retention Tubes in 1.0 mL of PBS pH 7.4. The concentration of the solutions of peptides was 1.0 mg/mL. The peptides were incubated at 37 °C with constant orbital shaking. Aliquots for the evaluation of the fibrillization process were taken before incubation and after 1, 2, 3, 6, 14, and 21 days or only after 7 days, depending on the experiments.
Peptide samples (5 µL) were applied on a glow-discharged carbon-coated copper grid (400 mesh). After 1 min of adsorption, excess liquid was removed using filter paper, and the samples were stained with 2% (v/v) aqueous uranyl acetate. The samples were examined with a TECNAI SPIRIT BIO TWIN FEI (FEI Company, Hillsboro, OR, USA) at 120 kV, with nominal magnifications between 11,500 and 39,000. The assay was performed for samples before (after dissolution) and after 3 days of incubation.

[2] = Thioflavin T fluorescence assay; type: physicochemical; settings: 1.0 mg/mL in PBS pH 7.4, 37 °C, orbital shaking; ThT excitation 420 nm, emission 482 nm
Protocol: as §1
Ten microliters of peptide solution incubated under fibrillization conditions (see Fibril preparation) were mixed with 10 µL of 1.5 mM ThT in water and 90 µL of PBS pH 7.4. The fluorescence was measured on a Tecan Infinite 200Pro (Tecan Group Ltd., Männedorf, Switzerland) spectrofluorometer in 96-well plates (Costar Black®), with excitation wavelength set at 420 nm and emission in the range of 455 to 600 nm.

[3] = Circular dichroism over incubation; type: physicochemical; settings: 1.0 mg/mL in PBS pH 7.4, 37 °C with agitation, up to 14 days; centrifuged clear solution, far-UV 195-250 nm
Protocol: Circular dichroism spectra were recorded on a Jasco J-815 spectropolarimeter (Jasco, Victoria, BC, Canada). Far-UV spectra (195–250 nm) were registered for all peptides dissolved in PBS pH 7.4 at a concentration of 1.0 mg/mL and incubated at 37 °C with agitation. Spectra were recorded before and after 1,2, 3, 7, 10 and 14 days of incubation. All spectra were corrected for the buffer signal. The CD spectra were recorded three times, using a 0.2 mm cell.

[4] = target: T1, human neutrophil elastase (Homo sapiens, UniProt P08246); assay: Incubation with neutrophil elastase (release of active sequence); type: in vitro ADME; settings: non-fibrillated peptide 1.0 mM, 0.1 M Tris HCl, 500 mM NaCl, 0.05% Triton X-100, 20 mM CaCl2, pH 7.5; enzyme 150 nM; 30 min, 37 °C; RP-UHPLC (PDA) and LC-MS
T1 construct: purchased Sigma Aldrich
T1 sequence (P08246 30-267): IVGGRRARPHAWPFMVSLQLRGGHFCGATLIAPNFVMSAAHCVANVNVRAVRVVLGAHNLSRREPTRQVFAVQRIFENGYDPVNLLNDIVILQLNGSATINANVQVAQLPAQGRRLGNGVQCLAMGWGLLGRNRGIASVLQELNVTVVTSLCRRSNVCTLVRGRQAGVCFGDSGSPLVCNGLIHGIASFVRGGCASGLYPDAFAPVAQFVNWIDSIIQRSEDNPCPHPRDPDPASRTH
Protocol: An enzymatic stability study was performed using the human neutrophil elastase enzyme (Sigma Aldrich, St. Louis, MO, USA). The peptides were dissolved in a buffer (with composition: 0.1 M Tris HCl, 500 mM NaCl, 0.05% Triton X-100, 20 mM CaCl2, pH 7.5), to a final concentration 1.0 mM. The fibrils formed in the aggregation process were dissolved in PBS at pH 7.4 to a concentration of 1 mg/mL. The enzyme was added to the peptide/fibril solution to a concentration of 150 nM and incubated for 30 min (peptides) or 60 min (fibrils), at 37 °C, with agitation. A 10% aqueous TFA solution was added to the reaction mixture to stop the digestion. The progress of the reaction was monitored by RP-UHPLC with a PDA (Photo Diode Array) detector on a Kinetex C8 column (2.6 μm, 100 Å 2.6 × 100 mm, Phenomenex, Torrance, CA, USA), at a gradient of 0–50% B for 15 min, and by LC-MS.

[5] = Peptide stability in human plasma (TCA assay); type: in vitro ADME; settings: human plasma (EDTA), 37 °C, 300 rpm, TCA 3% precipitation, RP-HPLC UV 223 nm, at least triplicates
Protocol: Peptide stability tests were performed according to a TCA stability assay based on the method used by Nguyen et al.. Peptides were dissolved in water, mixed with human plasma* to a final concentration of 1.0 mg/mL, and incubated at 37 °C with agitation (300 rpm, Thermomixer, Eppendorf AG, Hamburg, Germany). After 0, 1, 2, 3, 6 and 24 h, 80 μL of the solution was taken and mixed with 15% TCA to obtain a final concentration of 3% (v/v). The samples were incubated in ice for 10 min and centrifuged for 10 min (12,000 rpm, Microfuge 16, Beckman Coulter, Brea, CA, USA). Supernatants were analyzed by RP-HPLC on column using a linear gradient of acetonitrile (5–100% over 15 min) with detection at 223 nm. Peptides were quantified by their peak areas relative to the initial peak areas (0 min). All stability tests were performed at least in triplicates. As control samples peptides dissolved only in water under the same conditions were used. To additionally assess the changes in the incubated samples (peptide degradation) mass spectrometry analysis was used. LC-MS experiments were performed using ESI-IT-TOF (Shimadzu, Kyoto, Japan).
* Blood was collected from healthy anonymous donors and EDTA was then used as an anticoagulant. The procedure was approved by the Independent Bioethics Commission for Research of the Medical University of Gdańsk (NKBBN/387/2014).

46BR.1N fibroblasts [6] = assay: XTT proliferation assay, fibroblasts; type: cell-based, human; settings: for inhibition of proliferation (XTT), in words: up to 25 µg/mL
Protocol: (§2) Immortalized human HaCaT [69, 70] keratinocytes (DKFZ, Heidelberg, Germany) and the human dermal fibroblast cell line 46BR.1N (ECACC, Sigma Aldrich, St. Louis, MO, USA) were used in the study. Cells were routinely grown in culture flasks (growth surface area 25 cm^2) in Dulbecco’s modified Eagle medium (DMEM, Sigma Aldrich, St. Louis, MO, USA), with 4500 mg/L of glucose, 584 mg/L of L-glutamine, sodium pyruvate, and sodium bicarbonate, supplemented with 10% FBS and 100 units/mL of penicillin and 100 μg/mL of streptomycin (Sigma Aldrich, St. Louis, MO, USA), under a humidified atmosphere with 5% CO2 at 37 °C. Medium was changed every 2–3 days.
(§3) Lactate dehydrogenase (LDH) activity in cell culture supernatants (Takara, Japan, cat. No. MK401) was measured to determine the cytotoxicity of the tested compounds, and the XTT assay was used to evaluate their effect on cell proliferation. Both tests were performed as previously described according to manufacturers’ instructions. Briefly, cells were seeded into 96-well plates, at a density of 5000 cells per well, in DMEM supplemented with 10% FBS. After 24 h the medium was exchanged for serum-free DMEM containing appropriate concentrations of the tested compounds. Supernatants for LDH analysis were collected after 48 h of incubation. The XTT assay was performed after 48 and 72 h of incubation.
(§4) For the analysis of the effect of the peptide fibrils on skin cells, the experiment was performed as described, but the cells were stimulated with 10 µL of the fibrils (50 µg/mL) and incubated for 48 h, when the LDH and XTT assay were then performed.

HaCaT keratinocytes = assay: XTT proliferation assay, keratinocytes; type: cell-based, human; settings: for inhibition of proliferation (XTT), in words: up to 25 µg/mL
Protocol: as §2, §3, §4

46BR.1N fibroblasts [7] = assay: LDH cytotoxicity assay, fibroblasts; type: cell-based, human; settings: non-fibrillated peptide 25 µg/mL, 48 h, serum-free DMEM; n = 16
Protocol: as §2
Lactate dehydrogenase (LDH) activity in cell culture supernatants (Takara, Japan, cat. No. MK401) was measured to determine the cytotoxicity of the tested compounds, and the XTT assay was used to evaluate their effect on cell proliferation. Both tests were performed as previously described according to manufacturers’ instructions. Briefly, cells were seeded into 96-well plates, at a density of 5000 cells per well, in DMEM supplemented with 10% FBS. After 24 h the medium was exchanged for serum-free DMEM containing appropriate concentrations of the tested compounds. Supernatants for LDH analysis were collected after 48 h of incubation. The XTT assay was performed after 48 and 72 h of incubation. […]

[8] = tested on: human neutrophil elastase (Sigma Aldrich), 150 nM; assay: human neutrophil elastase in buffer (0.1 M Tris HCl, 500 mM NaCl, 0.05% Triton X-100, 20 mM CaCl2, pH 7.5); non-fibrillated peptides; settings: 37 °C, up to 30 min
human plasma = settings: 37 °C, up to 24 h
[9] = non-fibrillated peptide, 48 and 72 h, serum-free DMEM, n = 16
[10] = non-fibrillated peptide, 48 and 72 h

For `CC[C@H](C)[C@H](NC(=O)CNC(=O)[C@H](C)NC(=O)[C@H](CCC(N)=O)NC(=O)CNC(=O)CNC(=O)CNC(=O)[C@@H](NC(=O)[C@@H]1CCCN1C(=O)[C@H](C)NC(=O)[C@H](C)NC(=O)CNC(=O)CNC(=O)CNC(=O)[C@H](CCCNC(=N)N)NC(=O)[C@H](Cc1ccc(O)cc1)NC(=O)[C@@H](NC(=O)[C@H](CCCCN)NC(=O)[C@H](CC(=O)O)NC(=O)[C@H](CCCNC(=N)N)NC(C)=O)C(C)C)C(C)C)C(=O)N[C@H](C(=O)N[C@H](C(N)=O)C(C)C)C(C)C` [FC-IM] (Ac-RDKVYRGGGAAPVGGGQAGIVV-NH2), the “fibril thickness (TEM)” value [1] was 10–12 nm, the “time course of ThT fluorescence increase (fibrillization)” value [2] was “required at least three days of incubation” and the “secondary structure by CD” value [3] was “disordered structure”. The “Degradation Yes/No by human neutrophil elastase” value [4] was “Yes”, the metabolised at 24 h, 1 mg/mL ([5]; peak area relative to 0 min, read-out: peptide loss in human plasma relative to the initial concentration) was 7% and the “increase in proliferation by fibrils compared to control (XTT)” value (46BR.1N fibroblasts [6]; fibrillated form, 10 µL of fibrils (50 µg/mL), 48 h, three independent experiments) was “did not stimulate proliferation of either tested cell line”. For the same compound, the “increase in proliferation compared to the control (XTT)” value (46BR.1N fibroblasts [6]; [9]) was 20–30%, the “inhibition of proliferation (XTT), in words” value (shortened to “inhibition of proliferation”) (46BR.1N fibroblasts [6]; [10]) was “Slight inhibition of the proliferation of fibroblasts was seen at a concentration of 25 µg/mL after 72 h incubation” and the “increase in proliferation by fibrils compared to control (XTT)” value (HaCaT keratinocytes; fibrillated form, 10 µL of fibrils (50 µg/mL), 48 h, not statistically significant) was “did not stimulate proliferation of either tested cell line”. For the same compound, the “increase in proliferation compared to the control (XTT)” value (HaCaT keratinocytes; [9]) was 20–30% and the “inhibition of proliferation” value (HaCaT keratinocytes; [10]) was “did not decrease the proliferation of HaCaT keratinocytes”.
In the case of `CC[C@H](C)[C@H](NC(=O)CNC(=O)[C@H](C)NC(=O)[C@@H](N)CCC(N)=O)C(=O)N[C@H](C(=O)N[C@H](C(N)=O)C(C)C)C(C)C` [FC] (H-QAGIVV-NH2), the remaining at 24 h, 1 mg/mL ([5]; rapid precipitation of peptide noted, read-out: peptide remained in solution in human plasma) is reported as 11%, the “cytotoxicity (LDH release)” value (46BR.1N fibroblasts [7]) is reported as “about 5%” and the “inhibition of proliferation” value (46BR.1N fibroblasts [6]; [10]) is reported as “Inhibition of the proliferation of both cell lines was not observed”. The “inhibition of proliferation” value (HaCaT keratinocytes; [10]) was “Inhibition of the proliferation of both cell lines was not observed”.
With Ac-GHK-GGG-AAPV-GGG-QAGIVV-NH2 the cleaved bond [8] was “V-G, major, 30 min”.
In the case of Ac-K GHK-GGG-AAPV-GGG-QAGIVV-NH2, the cleaved bond [8] is reported as “V-G, major, 30 min”.
With Ac-RDKVYR GGG-AAPV-GGG-QAGIVV-NH2 the not cleaved (human plasma) was 7% peptide loss after 24 h, the cleaved bond [8] was “V-G, major, 30 min” and the fragment found [8] was “Ac-RDKVYRGGGAAPVG-COOH”.
